This experiment concerns the target PARP-1 (poly[ADP-ribose] polymerase 1) enzyme (Homo sapiens (Human), UniProt P09874). Kind of experiment: PARP-1 (poly[ADP-ribose] polymerase 1) enzyme inhibitory ability, Trevigen assay kit. The following applies: for inhibition at 0.001 µM: 1 nM compound, read-out: PAR P-1 Inhibitory ability at 1 nM; for IC50: PARP-1 enzyme activity. The format is biochemical. An outline of the steps: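 After the 1 hour PARP reaction, wells were washed with PBS containing 0.1% triton X-100 and then PBS. Strep-HRP (50 μL) was bound for 1 hour, wells washed again, and 50 μL of TACS-sapphire substrate developed 15 minutes in the dark. Reactions were stopped with 50 μL of 5% phosphoric acid and absorbance read at 450 nm on a Victor3 reader.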

Molecules are shown by their SMILES. Bounds are passed on as bounds.

Sequence of PARP-1 (poly[ADP-ribose] polymerase 1) enzyme (P09874 whole entry): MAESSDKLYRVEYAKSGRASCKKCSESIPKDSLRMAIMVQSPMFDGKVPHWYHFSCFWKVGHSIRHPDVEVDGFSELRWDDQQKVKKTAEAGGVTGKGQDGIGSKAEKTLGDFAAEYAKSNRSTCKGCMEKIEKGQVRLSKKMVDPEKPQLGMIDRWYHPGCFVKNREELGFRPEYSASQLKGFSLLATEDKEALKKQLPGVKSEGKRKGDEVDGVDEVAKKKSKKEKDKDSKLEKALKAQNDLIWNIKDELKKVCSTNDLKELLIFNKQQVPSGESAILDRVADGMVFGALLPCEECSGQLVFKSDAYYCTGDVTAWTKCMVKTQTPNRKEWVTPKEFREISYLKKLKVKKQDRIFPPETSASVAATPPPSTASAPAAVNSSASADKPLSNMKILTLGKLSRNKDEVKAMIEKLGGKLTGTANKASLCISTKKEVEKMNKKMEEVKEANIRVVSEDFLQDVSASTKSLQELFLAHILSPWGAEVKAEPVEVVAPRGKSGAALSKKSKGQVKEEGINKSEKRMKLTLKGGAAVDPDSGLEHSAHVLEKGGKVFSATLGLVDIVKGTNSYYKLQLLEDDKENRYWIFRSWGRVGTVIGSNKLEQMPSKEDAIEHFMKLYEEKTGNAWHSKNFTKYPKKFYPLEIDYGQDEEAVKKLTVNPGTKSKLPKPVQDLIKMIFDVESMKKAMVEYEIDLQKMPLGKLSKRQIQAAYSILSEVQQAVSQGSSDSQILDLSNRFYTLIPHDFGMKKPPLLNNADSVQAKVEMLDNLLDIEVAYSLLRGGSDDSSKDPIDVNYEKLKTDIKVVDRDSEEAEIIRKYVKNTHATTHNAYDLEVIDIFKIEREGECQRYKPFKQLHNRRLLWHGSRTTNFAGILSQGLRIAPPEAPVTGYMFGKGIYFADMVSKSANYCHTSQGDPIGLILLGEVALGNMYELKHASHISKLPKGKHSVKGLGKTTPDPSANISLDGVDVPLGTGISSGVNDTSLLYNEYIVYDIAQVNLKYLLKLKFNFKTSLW

As for `N#Cc1ccc(N2CCN(CCCc3cc4ncccc4c(=O)[nH]3)CC2)cc1` [Example 221, 4-(4-(3-(5-oxo-5,6-dihydro-1,6-naphthyridin-7-yl)propyl)piperazin-1-yl)benzonitrile], the inhibition at 0.001 µM was 50 to 80%.
With `N#Cc1ccc(N2CCN(CCCc3cc4ncccc4c(=O)[nH]3)CC2)nc1` [Example 222, 6-(4-(3-(5-oxo-5,6-dihydro-1,6-naphthyridin-7-yl)propyl)piperazin-1-yl)nicotinonitrile], the inhibition at 0.001 µM is < 50%.
As for `O=c1[nH]c(CCCN2CCN(c3ccc(F)cc3)CC2)cc2ncccc12` [Example 223, 7-(3-(4-(4-fluorophenyl)piperazin-1-yl)propyl)-1,6-naphthyridin-5(6H)-one], the inhibition at 0.001 µM is < 50%.
In the case of `O=c1[nH]c(CCCN2CCN(c3cccc(F)c3)CC2)cc2ncccc12` [Example 224, 7-(3-(4-(3-fluorophenyl)piperazin-1-yl)propyl)-1,6-naphthyridin-5(6H)-one], the inhibition at 0.001 µM was < 50%.
As to `N#Cc1ccc(N2CC3CCC(C2)N3CCCc2cc3ncccc3c(=O)[nH]2)cc1` [Example 225, 4-(8-(3-(5-oxo-5,6-dihydro-1,6-naphthyridin-7-yl)propyl)-3,8-diazabicyclo[3.2.1]octan-3-yl)benzonitrile], the inhibition at 0.001 µM was > 80%.
For the compound `N#Cc1ccc(N2CCN(CCCc3cc4ncccc4c(=O)[nH]3)CC2)cn1` [Example 226, 5-(4-(3-(5-oxo-5,6-dihydro-1,6-naphthyridin-7-yl)propyl)piperazin-1-yl)picolinonitrile], the inhibition at 0.001 µM is < 50%.
`O=c1[nH]c(CCCN2CCN(c3ccnc(F)c3)CC2)cc2ncccc12` [Example 227, 7-(3-(4-(2-fluoropyridin-4-yl)piperazin-1-yl)propyl)-1,6-naphthyridin-5(6H)-one]: the inhibition at 0.001 µM is < 50%.
On the same count and under the same terms, then `N#Cc1ccc(N2CC3CCC(C2)N3CCCc2cc3ncccc3c(=O)[nH]2)cn1` [Example 229, 5-(8-(3-(5-oxo-5,6-dihydro-1,6-naphthyridin-7-yl)propyl)-3,8-diazabicyclo[3.2.1]octan-3-yl)picolinonitrile], with < 50%; and `O=c1[nH]c(CCCN2C3CCC2CN(c2ccc(F)cc2)C3)cc2ncccc12` [Example 230], with < 50%.
The same measure, in the same setting: then `O=c1[nH]c(CCCN2C3CCC2CN(c2ccc(F)cn2)C3)cc2ncccc12` [Example 231, 7-(3-(3-(5-fluoropyridin-2-yl)-3,8-diazabicyclo[3.2.1]octan-8-yl)propyl)-1,6-naphthyridin-5(6H)-one], with < 50%.
Take `N#Cc1ccc(N2CC3CCC(C2)N3CCCc2cc3ncccc3c(=O)[nH]2)nc1` [Example 232, 6-(8-(3-(5-oxo-5,6-dihydro-1,6-naphthyridin-7-yl)propyl)-3,8-diazabicyclo[3.2.1]octan-3-yl)nicotinonitrile]: the inhibition at 0.001 µM was < 50%.
Turning to `O=c1[nH]c(CCCN2C3CCC2CN(c2ccc(F)nc2)C3)cc2ncccc12` [Example 233, 7-(3-(3-(6-fluoropyridin-3-yl)-3,8-diazabicyclo[3.2.1]octan-8-yl)propyl)-1,6-naphthyridin-5(6H)-one], the inhibition at 0.001 µM lay in the range of 50 to 80%.
On the same count and under the same terms, as for `N#Cc1ccc(C2=CCN(CCCc3cc4ncccc4c(=O)[nH]3)CC2)cn1` [Example 234, 1′-(3-(5-oxo-5,6-dihydro-1,6-naphthyridin-7-yl)propyl)-1′,2′,3′,6′-tetrahydro-[3,4′-bipyridine]-6-carbonitrile], the figure is < 50%; as for `N#Cc1ccc(C2=CCN(CCCc3cc4ncccc4c(=O)[nH]3)CC2)nc1` [Example 235, 1′-(3-(5-oxo-5,6-dihydro-1,6-naphthyridin-7-yl)propyl)-1′,2′,3′,6′-tetrahydro-[2,4′-bipyridine]-5-carbonitrile], < 50%.
`O=c1[nH]c(CCCN2CC=C(c3ccc(F)cc3)CC2)cc2ncccc12` [Example 236, 7-(3-(4-(4-fluorophenyl)-3,6-dihydropyridin-1(2H)-yl)propyl)-1,6-naphthyridin-5(6H)-one]: the inhibition at 0.001 µM was < 50%.
`O=c1[nH]c(CCCN2CC=C(c3ccnc(F)c3)CC2)cc2ncccc12` [Example 237, 7-(3-(2′-fluoro-3,6-dihydro-[4,4′-bipyridine]-1(2H)-yl)propyl)-1,6-naphthyridin-5(6H)-one]: the inhibition at 0.001 µM was < 50%.
On to `O=c1[nH]c(CCCN2CC=C(c3cccc(F)c3)CC2)cc2ncccc12` [Example 238, 7-(3-(4-(3-fluorophenyl)-3,6-dihydropyridin-1(2H)-yl)propyl)-1,6-naphthyridin-5(6H)-one], for which the inhibition at 0.001 µM was < 50%.
Consider `N#Cc1ccc(C2=CCN(CCCc3cc4ncccc4c(=O)[nH]3)CC2)cc1` [Example 239, 4-(1-(3-(5-oxo-5,6-dihydro-1,6-naphthyridin-7-yl)propyl)-1,2,3,6-tetrahydropyridin-4-yl)benzonitrile], for which the inhibition at 0.001 µM is 50 to 80%.
With `O=c1[nH]c(CCCN2CC=C(c3ccncc3)CC2)cc2ncccc12` [Example 240, 7-(3-(3,6-dihydro-[4,4′-bipyridine]-1(2H)-yl)propyl)-1,6-naphthyridin-5(6H)-one], the inhibition at 0.001 µM was < 50%.
`N#Cc1ccc(N2CCN(C(=O)CCc3cc4ncccc4c(=O)[nH]3)CC2)cc1` [Example 241, 4-(4-(3-(5-oxo-5,6-dihydro-1,6-naphthyridin-7-yl)propanoyl)piperazin-1-yl)benzonitrile]: the inhibition at 0.001 µM lay within 50 to 80% and the IC50 came out at 4.92 nM.
`N#Cc1ccc(N2CCN(C(=O)CCc3cc4ncccc4c(=O)[nH]3)CC2)nc1` [Example 242, 6-(4-(3-(5-oxo-5,6-dihydro-1,6-naphthyridin-7-yl)propanoyl)piperazin-1-yl)nicotinonitrile]: the inhibition at 0.001 µM is < 50% and the IC50 was determined as 3.18 nM.
Consider `N#Cc1ccc(N2CCN(C(=O)CCc3cc4ncccc4c(=O)[nH]3)CC2)cn1` [Example 243, 5-(4-(3-(5-oxo-5,6-dihydro-1,6-naphthyridin-7-yl)propanoyl)piperazin-1-yl)picolinonitrile], for which the inhibition at 0.001 µM is < 50%.
Same read-out and setting: as for `O=C(CCc1cc2ncccc2c(=O)[nH]1)N1CC=C(c2ccc(F)cc2)CC1` [Example 244, 7-(3-(4-(4-fluorophenyl)-3,6-dihydropyridin-1(2H)-yl)-3-oxopropyl)-1,6-naphthyridin-5(6H)-one], the figure is < 50%; as for `N#Cc1ccc(C2=CCN(C(=O)CCc3cc4ncccc4c(=O)[nH]3)CC2)cc1` [Example 245, 4-(1-(3-(5-oxo-5,6-dihydro-1,6-naphthyridin-7-yl)propanoyl)-1,2,3,6-tetrahydropyridin-4-yl)benzonitrile], < 50%; as for `N#Cc1ccc(N2CC3CCC(C2)N3C(=O)CCc2cc3ncccc3c(=O)[nH]2)cc1` [Example 246, 4-(8-(3-(5-oxo-5,6-dihydro-1,6-naphthyridin-7-yl)propanoyl)-3,8-diazabicyclo[3.2.1]octan-3-yl)benzonitrile], < 50%.
Consider `N#Cc1ccc(NC2CCN(CCCc3cc4cccc(F)c4c(=O)[nH]3)CC2)cc1` [Example 247, 4-((1-(3-(8-fluoro-1-oxo-1,2-dihydroisoquinolin-3-yl)propyl)piperidin-4-yl)amino)benzonitrile], for which the inhibition at 0.001 µM lay within 50 to 80%.

Usually IC50 stands for the concentration at which inhibition is half-maximal. A lower IC50 goes with greater potency.
